Data reported in patent US9018209B2, “Compounds and methods for the treatment of viruses and cancer” (Yale University, priority 2005, dated 2015).
Read-outs that look alike come from different tables or passages of the source.

Tests used:
[1] = system: MT-2 human T-cells; assay: Cytotoxicity: inhibition of MT-2 cell growth; type: cell-based
Excerpt: The preparation of the analogues 4a-h involved the reaction between 2-bromothiazole 1 with the corresponding 5-amino-2-R-phenol 2, followed by reaction with 4-bromo-2-methyl-2-butene in presence of Cs2CO3 as a base (Scheme 1; see Table 1 for antiviral activities (EC50) and cytotoxicities (IC50) of these compounds, as determined using human MT-2 cells infected with IIIB strain of HIV-1).
See, Ruiz-Caro, supra. and Lin, et al., Biochem. Pharmacol. 1994, 47, 171-174.

[2] = system: IIIB strain of HIV-1; assay: Anti-HIV-1 activity: protection of infected MT-2 cells, MTT colorimetric method; type: cell-based; settings: for fold lower potency (higher EC50) than the corresponding DMA ether: Table 2b compounds
[3] = Table 1B, for 50% inhibition of MT-2 cell growth, triplicate samples
[4] = Human immunodeficiency virus 1, IIIB, MT2, Table 1a, heteroaryl derivatives, N/A read as no activity, read-out: EC50
[5] = Homo sapiens, MT2, Table 1a, cytotoxicity, MT-2 cells, read-out: IC50
[6] = Table 1B, for 50% protection in MT-2 cells, triplicate samples, NA for EC50 > CC50, read-out: EC50
[7] = Table 3, thiazoles 18-23, N/A read as no activity, read-out: EC50
[8] = Table 3, cytotoxicity, MT-2 cells, read-out: IC50
[9] = Table 1, compounds 4a-h, human MT-2 cells infected with IIIB strain of HIV-1, N/A read as no activity, read-out: EC50
[10] = Table 1, cytotoxicity, MT-2 cells, read-out: IC50
[11] = Human immunodeficiency virus 1, IIIB, MT2, Table of bicyclic-heteroaryl phenyl amines, MT-2 cell assays, read-out: EC50
[12] = Homo sapiens, MT2, Table of bicyclic-heteroaryl phenyl amines, cytotoxicity, MT-2 cell assays, read-out: IC50
[13] = Table 2b, derivatives of pyrimidine 11, NA for EC50 > CC50, read-out: EC50
[14] = Homo sapiens, MT2, Table 3, cytotoxicity, MT-2 cells, read-out: IC50

## CC(C)=CCOc1cc(Nc2nc(C)cs2)ccc1C [Compound 8b, 4-Methyl-N-(4-methyl-3-(3-methylbut-2-enyloxy)phenyl)thiazol-2-amine]
[1]; Homo sapiens, MT2
  IC50: 15 µM

## CC(C)=CCOc1cc(Nc2ncnc(Cl)n2)ccc1Cl [Compound 7a]
[1]; [3]
  CC50: 45 µM

## COc1ccnc(Nc2ccc(C)c(OCC=C(C)C)c2)n1 [Compound 42b, 4-Methoxy-N-(4-methyl-3-(3-methylbut-2-enyloxy)phenyl)pyrimidin-2-amine]
[2]; [4]
  EC50: 0.32 µM
[1]; [5]
  IC50: 41 µM

## CCc1ccnc(Nc2ccc(Cl)c(OCC=C(C)C)c2)n1 [Compound 9p]
[2]; [6]
  EC50: 0.016 µM
[1]; [3]
  CC50: 0.33 µM

## CCC(C)=CCOc1cc(Nc2nccs2)ccc1CC (mixture of isomers) [Compound 18e, (E/Z)-N-(4-ethyl-3-(3-methylpent-2-enyloxy)phenyl)thiazol-2-amine]
[2]; [7]
  EC50: 10 µM
[1]; [8]
  IC50: 29 µM

## COc1ccc(Nc2nccs2)cc1OCC=C(C)C [Compound 4c, N-(4-methoxy-3-(3-methylbut-2-enyloxy)phenylthiazol)-2-amine]
[2]; [9]
  EC50: 3.8 µM
[1]; [10]
  IC50: 42 µM

## CC(C)=CCOc1cc(Nc2nccc(N)n2)ccc1C [Compound 40b, N^2-(4-Methyl-3-(3-methylbut-2-enyloxy)phenyl)pyrimidin-2,4-diamine]
[2]; [4]
  EC50: 0.35 µM
[1]; [5]
  IC50: 6.5 µM

## COc1cc(N)nc(Nc2ccc(Cl)c(OCC=C(C)C)c2)n1 [Compound 9j]
[2]; [6]
  EC50: 3 µM
[1]; [3]
  CC50: 19 µM

## CC(C)=CCOc1cc(Nc2ncc3ccoc3n2)ccc1Cl [compound 61]
[2]; [11]
  EC50: 0.13 µM
[1]; [12]
  IC50: 20 µM

## COc1ccnc(Nc2ccc(Cl)c(Oc3ccccc3)c2)n1 [Compound 11d]
[2]
  fold lower potency (higher EC50) than the corresponding DMA ether: ca. 100 fold
[2]; [13]
  EC50: 2.5 µM
[1]; Table 2b, MT-2 cells
  CC50: 38 µM

## CC(C)=CCOc1cc(Nc2nccc3ccccc23)ccc1C#N [isoquinoline 62b]
[2]; Table of bicyclic-heteroaryl phenyl amines, MT-2 cell assays, read-out: EC50
  EC50: 0.003 µM
[1]; Table of bicyclic-heteroaryl phenyl amines, cytotoxicity, MT-2 cell assays, read-out: IC50
  IC50: 4.4 µM

## N-(4-Chloro-3-(cyclopentenyloxy)phenyl)thiazol-2-amine [Compound 20d]
[2]; [7]
  EC50: 5 µM
[1]; [8]
  IC50: 15 µM

## COc1ccnc(Nc2ccc(Cl)c(Oc3ccccc3C)c2)n1 [Compound 11e]
[1]; Table 2b, MT-2 cells
  CC50: 13 µM

## COc1nc(N)nc(Nc2ccc(C#N)c(OCC=C(C)C)c2)n1 [Compound 8j]
[2]; [6]
  EC50: 0.009 µM
[1]; [3]
  CC50: 0.11 µM

## CCCCCCCOc1cc(Nc2nccs2)ccc1Cl [Compound 23d, N-(4-Chloro-3-(hexylmethoxy)phenyl)thiazol-2-amine]
[1]; [14]
  IC50: 15 µM

## CC1=C(COc2cc(Nc3nccs3)ccc2Cl)CCC1 [Compound 21d, N-(4-Chloro-3-((2-methylcyclopent-1-enyl)methoxy)phenyl)thiazol-2-amine]
[1]; [14]
  IC50: 2.5 µM

## CC(C)=CCOc1cc(Nc2nccn3cccc23)ccc1Cl [compound 60]
[2]; [11]
  EC50: 0.019 µM
[1]; [12]
  IC50: 20 µM

## COCc1ccnc(Nc2ccc(Cl)c(OCC=C(C)C)c2)n1 [Compound 9l]
[1]; [3]
  CC50: > 25 µM

## CC(C)=CCOc1cc(Nc2nccc(N)n2)ccc1Cl [Compound 40d, N^2-(4-Chloro-3-(3-methylbut-2-enyloxy)phenyl)pyrimidin-2,4-diamine]
[2]; [4]
  EC50: 0.075 µM
[1]; [5]
  IC50: > 1 µM

## Cc1cc(C#N)cc(C)c1Oc1nc(Nc2ccc(C#N)cc2)nc(N)c1Br [TMC125, etravirine, reference compound]
[1]; [12]
  IC50: > 1 µM
[1]; [3]
  CC50: > 1 µM

## CC/C(C)=C\COc1cc(Nc2nccs2)ccc1Cl [Compound 18d, (E/Z)-N-(4-chloro-3-(3-methylpent-2-enyloxy)phenyl)thiazol-2-amine]
[2]; [7]
  EC50: 1 µM
[1]; [8]
  IC50: 18 µM

## CC(C)=CCOc1cc(Nc2ncnc(N)n2)ccc1Cl [Compound 7c]
[2]; [6]
  EC50: 0.39 µM
[1]; [3]
  CC50: 48 µM

## CCc1ccc(Nc2nccs2)cc1OCC=C(C)C [Compound 4e, N-(4-ethyl-3-(3-methylbut-2-enyloxy)phenylthiazol)-2-amine]
[2]; [9]
  EC50: 5 µM
[1]; [10]
  IC50: 31 µM

## CNc1ccnc(Nc2ccc(Cl)c(OCC=C(C)C)c2)n1 [Compound 9d]
[2]; [6]
  EC50: 0.006 µM
[1]; [3]
  CC50: 0.69 µM

## CC(C)=CCOc1cc(Nc2nccc(CO)n2)ccc1Cl [Compound 9m]
[1]; [3]
  CC50: 0.22 µM

## Cc1nccc(C(F)(F)F)n1 [Compound 49]
[2]; [4]
  EC50: 0.065 µM
[1]; [5]
  IC50: 2.5 µM

## CC(C)=CCOc1cc(Nc2nccs2)ccc1Cl [Compound 4d, N-(4-chloro-3-(3-methylbut-2-enyloxy)phenylthiazol)-2-amine]
[2]; [9]
  EC50: 0.3 µM
[2]; Table 1a, heteroaryl derivatives, N/A read as no activity, read-out: EC50
  EC50: 0.3 µM
[1]; [10]
  IC50: 26 µM
[1]; Table 1a, cytotoxicity, MT-2 cells, read-out: IC50
  IC50: 26 µM

## Clc1ccc(Nc2ncccn2)cc1Oc1ccccc1 [Compound 11b]
[2]
  fold lower potency (higher EC50) than the corresponding DMA ether: ca. 100 fold
[2]; [13]
  EC50: 13 µM
[1]; Table 2b, MT-2 cells
  CC50: 30 µM

## CC(C)=CCOc1cc(Nc2ccnc(N)n2)ccc1C [Compound 45b, N^4-(4-Methyl-3-(3-methylbut-2-enyloxy)phenyl)pyrimidin-2,4-diamine]
[1]; [5]
  IC50: 0.6 µM

## Ethyl 2-(4-methyl-3-(3-methylbut-2-enyloxy)phenylamino)thiazole-4-carboxylate [Compound 9b]
[2]; [6]
  EC50: 0.01 µM
[2]; [13]
  EC50: 0.01 µM

## CC(C)=CCOc1cc(Nc2nccc3cc[nH]c23)ccc1Cl [compound 58]
[2]; [11]
  EC50: 0.9 µM
[1]; [12]
  IC50: 9.2 µM

## Clc1ccc(Nc2nccs2)cc1OCC1CCCCC1 [Compound 22d, N-(4-Chloro-3-(cyclohexylmethoxy)phenyl)thiazol-2-amine]
[1]; [14]
  IC50: 12 µM

## CC(C)=CCOc1cc(Nc2ccccn2)ccc1Cl [Compound 30d, N-(4-Chloro-3-(3-methylbut-2-enyloxy)phenyl)pyridin-2-amine]
[1]; [5]
  IC50: 15 µM

## COc1ccc(Nc2nc(C)cs2)cc1OCC=C(C)C [Compound 8c, 4-Methyl-N-(4-methoxy-3-(3-methylbut-2-enyloxy)phenyl)thiazol-2-amine]
[1]; Homo sapiens, MT2
  IC50: 18 µM

## CC(C)=CCOc1cc(Nc2ccccn2)ccc1C#N [Compound 30h, N-(4-Cyano-3-(3-methylbut-2-enyloxy)phenyl)pyridin-2-amine]
[1]; [5]
  IC50: 0.29 µM

## Cc1ccnc2c1NC(=O)c1cccnc1N2C1CC1 [Nevirapine, nevirapine, reference compound]
[1]; [5]
  IC50: > 10 µM
[1]; [12]
  IC50: > 10 µM
[1]; [3]
  CC50: > 10 µM

## CC(C)=CC(C)Oc1cc(Nc2ncccn2)ccc1Cl (centres unmarked) [Compound 46, N-(4-chloro-3-(4-methylpent-3-en-2-yloxy)phenyl)pyrimidin-2-amine]
[1]; Homo sapiens, MT2, Table 2a, cytotoxicity, MT-2 cells, read-out: IC50
  IC50: 22 µM

## CC(C)=CCOc1cc(Nc2ccccn2)ccc1C [Compound 30b, N-(4-Methyl-3-(3-methylbut-2-enyloxy)phenyl)pyridin-2-amine]
[1]; [5]
  IC50: 35 µM

## CCCc1ccc(Nc2nccs2)cc1OCC=C(C)C [Compound 4f, N-(4-propyl-3-(3-methylbut-2-enyloxy)phenylthiazol)-2-amine]
[1]; [10]
  IC50: 31 µM

## CCOC(=O)c1csc(Nc2cccc(OCC=C(C)C)c2)n1 [Compound 9a, Ethyl 2-(3-(3-methylbut-2-enyloxy)phenylamino)thiazole-4-carboxylate]
[1]; Homo sapiens, MT2
  IC50: 21 µM

## CC(C)=CCOc1cc(Nc2ccnc(N)n2)ccc1Cl [Compound 45d, N^4-(4-Chloro-3-(3-methylbut-2-enyloxy)phenyl)pyrimidin-2,4-diamine]
[1]; [5]
  IC50: 2 µM

## CCOC(=O)c1csc(Nc2ccc(OC)c(OCC=C(C)C)c2)n1 [Compound 9c, Ethyl 2-(4-methoxy-3-(3-methylbut-2-enyloxy)phenylamino)thiazole-4-carboxylate]
[1]; Homo sapiens, MT2
  IC50: 15 µM

## N#Cc1ccc(Nc2nccs2)cc1OC1=CCCC1 [Compound 20h, N-(4-Cyano-3-(cyclopentenyloxy)phenyl)thiazol-2-amine]
[1]; [14]
  IC50: 1.7 µM

## CC(C)=CC(C)Oc1cc(Nc2nccs2)ccc1Cl (centres unmarked) [Compound 19d, N-(4-Chloro-3-(4-methylpent-3-en-2-yloxy)phenyl)thiazol-2-amine]
[1]; [14]
  IC50: 22 µM

## Cc1cn([C@H]2C=C[C@@H](CO)O2)c(=O)[nH]c1=O [d4T, Stavudine, reference compound]
[2]; Human immunodeficiency virus 1, IIIB, text b104, read-out: anti-HIV activities in our assay
  EC50: 3 µM

## Ethyl 2-(4-methoxy-3-(3-methylbut-2-enyloxy)phenylamino)thiazole-4-carboxylate [Compound 9c]
[2]; [6]
  EC50: 0.075 µM

## CCOC(=O)c1csc(Nc2ccc(C)c(OCC=C(C)C)c2)n1 [Compound 9b, Ethyl 2-(4-methyl-3-(3-methylbut-2-enyloxy)phenylamino)thiazole-4-carboxylate]
[1]; Homo sapiens, MT2
  IC50: 11 µM

## CC1=C(COc2cc(Nc3ncccn3)ccc2Cl)CCC1 [Compound 47]
[1]; Table 2a, cytotoxicity, MT-2 cells, read-out: IC50
  IC50: 2.5 µM

## (2-3-(3-Methylbut-2-enyloxy)phenylamino)thiazol-4-yl)methanol [Compound 10a]
[1]; Table 2, cytotoxicity, MT-2 cells, read-out: IC50
  IC50: 38 µM

## CC(C)=CCOc1cccc(Nc2nc(C)cs2)c1 [Compound 8a, 4-Methyl-N-(3-(3-methylbut-2-enyloxy)phenyl)thiazol-2-amine]
[1]; Homo sapiens, MT2
  IC50: 26 µM

## COc1nc(Cl)nc(Nc2ccc(Cl)c(OCC=C(C)C)c2)n1 [Compound 7f]
[1]; [3]
  CC50: 26 µM
